Tests used:
[1] = tested on: MBL-producers; conditions: cited from earlier work
[2] = tested on: MBL class IMP; conditions: cited from earlier work
[3] = tested on: MBLs; conditions: cited from earlier work
[4] = tested on: K. pneumoniae K66-45 (NDM-1); test: MIC determination of meropenem with zinc chelator at varying zinc concentrations in the medium (Example 31); assay type: cell-based, Klebsiella pneumoniae
Description: An experiment was conducted to determine the Minimal Inhibitory Concentration (MIC) of meropenem (MEM) in combination with the zinc chelator according to Example 26 of WO 2018/033719 at varying concentrations of zinc in the medium. The medium was a Mueller Hinton broth from Thermo Fischer. The zinc content was measured as 5.6 μM using ICP-MS. The concentration of zinc in the plasma of healthy animals has been determined to be close to this value. In infectious tissue, the zinc concentration is below the limit of detection (see, for example Bilinskaya et al., Am. Soc. For Microbiology (2020), 58, pages 1-8). Zinc sulfate was then added to this broth to obtain three further concentrations: 15.6 μM, 25.6 μM and 35.6 μM of zinc, keeping all other parameters constant.
As a model bacterial strain for this experiment, the MIC of MEM vs. K. pneumoniae K66-45 (NDM-1) was then determined in broth containing the four concentrations of zinc following the protocol given in Example 1. The EUCAST MIC value for MEM alone (EUCAST: standardization organization for MIC values of antibiotics) is 4-8 μM, meaning that if a bacterial strain is inhibited at lower concentrations than the MIC value, the bacterial strain is sensitive(S) to MEM. Correspondingly, if the bacterial strain is not inhibited at MIC or lower, the strain is resistant (R). If the inhibition is within the MIC range 4-8 μM, the resistance is intermediate (I).

[5] = tested on: clinically isolated gram-negative bacteria with MBL as a resistance mechanism; conditions: cited from earlier work
[6] = tested on: NDM; conditions: mouse models; relatively high doses required to reverse carbapenem resistance; cited from earlier work

NCCN[C@H]1CC[C@H](CC(=O)N[C@H]2Cc3cccc(C(=O)O)c3OB2O)CC1 [taniborbactam]
activity in combination with cefepime [1]: potent activity
effect in combination with cefepime [2]: no effect

NC(=O)[C@@H]1CC[C@@H]2CN1C(=O)N2OS(=O)(=O)O [Avibactam, avibactam]
inhibitory activity against MBLs [3]: none of these β-lactamase inhibitors possess inhibitory activity against MBLs

O=C(O)C[C@@H]1CC[C@H](NC(=O)Cc2cccs2)B(O)O1 [vaborbactam]
inhibitory activity against MBLs [3]: none of these β-lactamase inhibitors possess inhibitory activity against MBLs

C[C@@H](O)[C@H]1C(=O)N2C(C(=O)O)=C(S[C@@H]3CN[C@H](C(=O)N(C)C)C3)[C@H](C)[C@H]12 [Meropenem, meropenem, reference compound]
EUCAST MIC class for MEM alone ([4]; zinc concentration 5.6 μM): S (if a bacterial strain is inhibited at lower concentrations than the MIC value, the bacterial strain is sensitive(S) to MEM)
EUCAST MIC class for MEM alone ([4]; zinc concentration 35.6 μM): R (if the bacterial strain is not inhibited at MIC or lower, the strain is resistant (R))
sensitivity to meropenem alone ([5]; meropenem used alone, many clinical isolates with MBL): resistant to the antibiotic
effect of MEM in combination with the compound of Example 26 of WO 2018/033719 ([5]; same strains, sensitivity reinstated): inhibitory effect

N[C@H](CN[C@H](CN[C@@H](CC(=O)O)C(=O)O)C(=O)O)C(=O)O [aspergillomarasmine A]
in vivo activity [6]: in vivo activity in mouse models

CC1=C[C@@H]2CN(C(=O)N2OS(=O)(=O)O)[C@@H]1C(N)=O [ETX2514]
inhibitory activity against MBLs [3]: none of these β-lactamase inhibitors possess inhibitory activity against MBLs
